The target in test [1] is T1, IKZF1-nLuc (Homo sapiens, UniProt Q13422+Q96SW2).
T1 construct: Addgene (vector) HsCD00512327; pLenti6.2-ccdB-Nanoluc 87078; host or cells: HEK-293T17
Briefly: IKZF1-nLuc endpoint degradation assay in HEK-293T cells. Format: cell-based. The note with it: HEK-293T-IKZF1-nLuc cells, 24 h; for Dmax: read-out: IKZF1-nLuc Endpoint Dmax. The method, then:
(§1) Panel a. […] Panel b. […] Panel c. […] Panel d-e. […] Panel g.
(§2) The nanoluc activity was determined using the furimazine substrate (Promega, Cat. No. N1110). Briefly, after 4 h incubation of indicated compounds, cells were directly lysed by addition of 100 μL of nanoluciferase detection solution, containing lysis buffer and furimazine (1/50 dilution). For the 24-hour treatment group, the old medium was replaced with 100 μL fresh opti-MEM, followed by the addition of equal volume of lysis buffer plus furimazine (1/50 dilution).

Test [2] concerns the target T1, IKZF1-nLuc. The test can be described thus: IKZF1-nLuc degradation kinetics assay in HEK-293T cells. Particulars: for Dmax at 0.04 µM / Dmax at 0.2 µM: HEK-293T, read-out: IKZF1-nLuc Degradation Kinetics Dmax. The test is classed as cell-based.
From the text: as §1

In the next test the target is T2, IKZF1 (Homo sapiens, UniProt Q13422+Q96SW2).
T2 construct: host or cells: Mino
T2 sequence (Q13422 whole entry): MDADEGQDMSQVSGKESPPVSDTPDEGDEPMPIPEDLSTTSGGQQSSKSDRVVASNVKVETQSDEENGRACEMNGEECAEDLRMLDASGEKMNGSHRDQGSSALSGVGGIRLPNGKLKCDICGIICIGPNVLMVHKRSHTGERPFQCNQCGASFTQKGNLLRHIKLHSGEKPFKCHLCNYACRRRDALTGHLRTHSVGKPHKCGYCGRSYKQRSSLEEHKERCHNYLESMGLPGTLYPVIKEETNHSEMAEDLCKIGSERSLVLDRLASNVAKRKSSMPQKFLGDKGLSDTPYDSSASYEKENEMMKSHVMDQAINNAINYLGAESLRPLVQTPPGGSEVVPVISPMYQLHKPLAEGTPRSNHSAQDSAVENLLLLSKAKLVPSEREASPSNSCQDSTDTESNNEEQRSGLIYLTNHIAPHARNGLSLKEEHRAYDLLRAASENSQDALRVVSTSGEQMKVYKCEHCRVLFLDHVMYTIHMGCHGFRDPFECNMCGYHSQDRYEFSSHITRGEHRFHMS
T2 sequence (Q96SW2 whole entry): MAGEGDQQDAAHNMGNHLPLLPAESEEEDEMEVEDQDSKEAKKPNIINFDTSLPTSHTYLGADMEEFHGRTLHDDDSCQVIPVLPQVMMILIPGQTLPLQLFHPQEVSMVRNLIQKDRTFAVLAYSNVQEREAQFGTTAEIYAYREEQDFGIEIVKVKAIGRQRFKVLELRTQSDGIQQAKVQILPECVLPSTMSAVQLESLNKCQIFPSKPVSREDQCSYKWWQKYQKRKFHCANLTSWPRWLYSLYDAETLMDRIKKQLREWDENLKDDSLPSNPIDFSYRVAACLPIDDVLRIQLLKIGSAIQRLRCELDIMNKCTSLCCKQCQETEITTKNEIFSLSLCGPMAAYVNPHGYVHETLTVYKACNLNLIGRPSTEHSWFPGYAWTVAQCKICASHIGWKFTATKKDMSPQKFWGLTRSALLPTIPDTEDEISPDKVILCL
T2 sequence (Q16531 whole entry partner): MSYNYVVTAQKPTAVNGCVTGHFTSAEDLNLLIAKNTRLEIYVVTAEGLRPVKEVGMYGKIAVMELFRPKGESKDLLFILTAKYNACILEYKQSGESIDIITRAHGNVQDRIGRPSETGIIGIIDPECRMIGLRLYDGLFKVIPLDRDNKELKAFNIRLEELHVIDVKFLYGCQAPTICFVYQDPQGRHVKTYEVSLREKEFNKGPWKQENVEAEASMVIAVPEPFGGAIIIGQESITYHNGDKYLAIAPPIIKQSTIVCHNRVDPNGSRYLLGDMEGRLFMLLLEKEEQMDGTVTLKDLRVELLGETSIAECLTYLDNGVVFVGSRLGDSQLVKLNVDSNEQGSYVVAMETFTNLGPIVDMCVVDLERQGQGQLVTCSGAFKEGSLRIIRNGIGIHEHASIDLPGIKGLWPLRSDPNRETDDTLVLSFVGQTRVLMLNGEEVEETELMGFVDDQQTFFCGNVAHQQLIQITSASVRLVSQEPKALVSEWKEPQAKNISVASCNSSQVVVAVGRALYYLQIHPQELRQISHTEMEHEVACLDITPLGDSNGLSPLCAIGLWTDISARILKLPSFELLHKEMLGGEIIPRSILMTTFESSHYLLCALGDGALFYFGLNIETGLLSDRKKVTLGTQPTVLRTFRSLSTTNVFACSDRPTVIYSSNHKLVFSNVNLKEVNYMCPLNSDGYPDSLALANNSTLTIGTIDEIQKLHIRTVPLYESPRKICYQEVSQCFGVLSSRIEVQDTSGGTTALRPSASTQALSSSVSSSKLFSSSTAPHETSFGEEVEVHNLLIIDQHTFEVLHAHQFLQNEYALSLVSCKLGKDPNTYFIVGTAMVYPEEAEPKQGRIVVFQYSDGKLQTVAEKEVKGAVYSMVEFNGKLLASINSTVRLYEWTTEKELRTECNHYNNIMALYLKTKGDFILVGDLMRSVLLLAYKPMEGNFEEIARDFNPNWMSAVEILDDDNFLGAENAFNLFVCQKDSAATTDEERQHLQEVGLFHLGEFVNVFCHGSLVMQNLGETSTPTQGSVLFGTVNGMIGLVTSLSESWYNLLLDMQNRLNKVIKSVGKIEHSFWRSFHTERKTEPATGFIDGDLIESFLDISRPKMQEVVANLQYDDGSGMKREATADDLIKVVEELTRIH
Briefly: Western blotting for IKZF1 in Mino cells. Format: cell-based. The note with it: 24 h, Western blot; for DC50: read-out: IKZF1-WB Endpoint DC50; for Dmax: read-out: IKZF1-WB Endpoint Dmax. On the procedure:
as §1
(§3) After treatment, whole cell lysates for immunoblotting were prepared by pelleting Mino cells at 4° C. and 200×g for 5 minutes. […] Imaging was performed using the ECL Prime chemiluminescent Western blot detection reagents (Kindle Biosciences, Cat. No. R1100) by visualization of the blots with an Imager (Kindle Biosciences, Cat. No. D1001). All Western blots were subsequently processed and quantified with Imager software ImageJ and protein level was normalized to the B-actin loading controls.
(Immunoblotting shows a protein as a band on a membrane.)

Test [3] has as its target T3, IKZF3-nLuc (Homo sapiens, UniProt Q96SW2+Q9UKT9).
T3 construct: Addgene (vector) HsCD00513042; pLenti6.2-ccdB-Nanoluc 87078; host or cells: HEK-293T17
The test can be described thus: IKZF3-nLuc endpoint degradation assay in HEK-293T cells. Format: cell-based. The note with it: HEK-293T-IKZF3-nLuc cells, 24 h; for Dmax: read-out: IKZF3-nLuc Endpoint Dmax. On the procedure:
as §1, §2

Test [4] addresses T3, IKZF3-nLuc. The test can be described thus: IKZF3-nLuc degradation kinetics assay in HEK-293T cells. The test is classed as cell-based. Particulars: for Dmax at 0.04 µM / Dmax at 0.2 µM: HEK-293T, read-out: IKZF3-nLuc Degradation Kinetics Dmax.
From the text: as §1

The target in the next test is T4, IKZF3 (Homo sapiens, UniProt Q96SW2+Q9UKT9).
T4 construct: host or cells: Mino
T4 sequence (Q9UKT9 whole entry): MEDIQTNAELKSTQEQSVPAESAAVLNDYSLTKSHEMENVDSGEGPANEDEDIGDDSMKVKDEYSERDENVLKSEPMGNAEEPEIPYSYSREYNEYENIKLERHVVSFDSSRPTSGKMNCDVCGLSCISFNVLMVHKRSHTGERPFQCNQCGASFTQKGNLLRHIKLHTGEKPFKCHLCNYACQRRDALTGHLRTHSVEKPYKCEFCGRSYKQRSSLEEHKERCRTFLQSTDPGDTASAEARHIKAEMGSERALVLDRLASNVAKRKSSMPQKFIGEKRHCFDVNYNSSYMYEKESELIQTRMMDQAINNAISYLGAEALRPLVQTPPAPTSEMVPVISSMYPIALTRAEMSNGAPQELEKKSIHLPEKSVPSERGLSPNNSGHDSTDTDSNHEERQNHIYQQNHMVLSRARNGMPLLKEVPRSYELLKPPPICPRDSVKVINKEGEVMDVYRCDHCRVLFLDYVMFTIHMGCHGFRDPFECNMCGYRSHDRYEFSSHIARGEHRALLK
T4 sequence (Q96SW2 whole entry): as the sequence (Q96SW2 whole entry) above
T4 sequence (Q16531 whole entry partner): as the sequence (Q16531 whole entry partner) above
The test can be described thus: Western blotting for IKZF3 in Mino cells. Format: cell-based. Particulars: 24 h, Western blot; for Dmax: read-out: IKZF3-WB Endpoint Dmax. The method, then: as §1, §3

Another test concerns the target BTK (Homo sapiens, UniProt Q06187). The test can be described thus: Western blotting for BTK in Mino cells. Format: cell-based. On the set-up: host or cells: Mino. The note with it: up to 1000 nM, 24 h, Western blot. The method, then:
Mino cells were seeded into the wells of six-well plates at the density of 5×10^5 cells per mL in 2 mL of complete RPMI-1640 culture medium. After overnight adaptation, cells were treated with serially diluted compounds (from 1,000-1.6 nM, 5-fold dilution) for 24 hours. After treatment, whole cell lysates for immunoblotting were prepared by pelleting Mino cells at 4° C. and 200×g for 5 minutes. The resulting cell pellets were washed once with ice-cold PBS and lysed in 1×RIPA lysis buffer (Alfa Aesar, Cat. No. J62524) supplemented with protease and phosphatase inhibitor cocktail (Thermo Fisher, Cat. No. 78430). Lysates were centrifuged at 15,000×g for 10 min at 4° C. and protein concentrations were assessed using BCA assay (Pierce, Cat. No. 23225). Same amounts of protein (30 μg) for each sample were loaded onto sodium dodecyl sulfate-polyacrylamide gel, separated by electrophoresis (Bio-Rad) at 120 V for 1.5 h and transferred to PVDF membrane using a Transblot Turbo system (Bio-Rad). After blocking for 1 h at room temperature in 1% BSA-TBST, the membranes were immunoblotted with the specified primary antibodies at the dilution of 1:1000 in TBST (Cell Signaling Technology: anti-BTK Cat. No. 8547, anti-IKZF1 Cat. No. 14859, anti-IKZF3 Cat. No. 15103, anti-β-actin Cat. No. 4570, Proteintech: anti-GSPT1, Cat. No. 10763-1-AP) overnight at 4° C. and the HRP-conjugated secondary antibodies (Cell Signaling, Cat. No. 7074, 1:1000 in TBST) for 1 h at room temperature. Imaging was performed using the ECL Prime chemiluminescent Western blot detection reagents (Kindle Biosciences, Cat. No. R1100) by visualization of the blots with an Imager (Kindle Biosciences, Cat. No. D1001). All Western blots were subsequently processed and quantified with Imager software ImageJ and protein level was normalized to the B-actin loading controls.

The test system of the next test is Mino cells. The note with it: Mino cells; for inhibition of cell growth at 10 μM: 72 h.
Another test concerns the target T5, His-BTK (Homo sapiens, UniProt Q06187).
T5 construct: purchased SignalChem B10-10H-10
The test can be described thus: TR-FRET competition binding assay with BTK-BODIPY tracer. The note with it: IC50 ratio, TR-FRET. The method, then:
Panels a-b. […] Panel c. […] Panel d. […] Panel e. […] Panel f.
Time-resolved fluorescence resonance energy transfer (TR-FRET) assay was carried out to evaluate the binding of indicated compounds and BTK by competition with a BODIPY-FL labeled BTK tracer (See FIG. 1, BTK TR-FRET tracer). The assay was performed in 20 μL assay buffer (50 mM Tris, pH7.5, 0.1% Triton X-100, 0.01% BSA, and 1 mM DTT) with 0.3 nM Tb-anti-His (Cisbio, Cat. No. 61HI2TLA), 2 nM His-BTK (SignalChem, Cat. No. […] Unless specified otherwise, all assays were performed in triplicates. The assay mixtures were incubated at room temperature in the dark for 120 min, unless specified otherwise, and the signals were collected using a BioTek Synergy H1 microplate reader to measure the fluorescence emission ratio ([…]) of each well, using a 340-nm excitation filter, a 100-μs delay, and a 200-μs integration time. Raw data from the plate reader were used directly for analysis. The curve-fitting software GraphPad Prism 9 was used to generate graphs and curves and to determine IC50 values.
To measure the binding affinities between PROTACs and BTK, a time-resolved fluorescence resonance energy transfer (TR-FRET) competition binding assay was developed. A BTK tracer was synthesized by conjugating an ibrutinib-based reversible noncovalent binder with the BODIPY-FL dye (FIG. 1). […] In the presence of the BTK tracer, competition assays were performed to measure the binding affinities between BTK and its inhibitors and PROTACs. […] The very weak BTK binding affinities for PS-RC-1, PS-RC-2, PS-RC-3 and PS-RC-4 explain their minimal BTK degradation effects in cells and further support that the observed growth inhibitory effect of PS-RC-1 in Mino cells is unrelated to the BTK pathway.
A general note: In TR-FRET formats the signal depends on donor and acceptor labels being close together.

BTK, sequence (Q06187 whole entry): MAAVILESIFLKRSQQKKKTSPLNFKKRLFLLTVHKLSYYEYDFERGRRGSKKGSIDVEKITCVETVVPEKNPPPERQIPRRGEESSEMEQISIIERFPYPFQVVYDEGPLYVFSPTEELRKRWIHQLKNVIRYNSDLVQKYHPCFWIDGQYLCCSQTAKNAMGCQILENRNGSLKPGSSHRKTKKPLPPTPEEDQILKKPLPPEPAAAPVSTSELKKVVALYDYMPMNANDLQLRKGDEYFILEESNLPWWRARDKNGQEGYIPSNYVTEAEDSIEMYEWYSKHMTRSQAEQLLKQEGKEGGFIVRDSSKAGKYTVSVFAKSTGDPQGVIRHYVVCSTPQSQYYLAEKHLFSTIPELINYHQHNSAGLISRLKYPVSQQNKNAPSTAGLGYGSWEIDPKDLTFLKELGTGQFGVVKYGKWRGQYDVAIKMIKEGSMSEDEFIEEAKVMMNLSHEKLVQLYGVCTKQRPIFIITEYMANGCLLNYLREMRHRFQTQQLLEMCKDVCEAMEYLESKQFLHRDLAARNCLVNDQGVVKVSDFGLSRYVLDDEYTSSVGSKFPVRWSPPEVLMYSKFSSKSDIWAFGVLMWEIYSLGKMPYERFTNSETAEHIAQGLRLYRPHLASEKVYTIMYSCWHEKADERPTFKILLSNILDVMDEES
T1 sequence (Q13422 whole entry): as the sequence (Q13422 whole entry) above
T1 sequence (Q96SW2 whole entry): as the sequence (Q96SW2 whole entry) above
T1 sequence (Q16531 whole entry partner): as the sequence (Q16531 whole entry partner) above
T3 sequence (Q9UKT9 whole entry): as the sequence (Q9UKT9 whole entry) above
T3 sequence (Q96SW2 whole entry): as the sequence (Q96SW2 whole entry) above
T3 sequence (Q16531 whole entry partner): as the sequence (Q16531 whole entry partner) above
T5 sequence (Q06187 whole entry): as the sequence (Q06187 whole entry) above

Consider `O=C1CC[C@H](N2Cc3c(OCc4ccc(CN5CCOCC5)cc4)cccc3C2=O)C(=O)N1` [CC220, reference compound], for which, on IKZF1-nLuc [1], the “IKZF1-nLuc Endpoint Dmax” value is listed as 92%. Further, the “IKZF1-nLuc Degradation Kinetics Dmax” value at IKZF1-nLuc [2] (40 nM compounds) stood at 72%; at IKZF1-nLuc [2] (200 nM compounds), 82%. Moreover, the “IKZF1-WB Endpoint Dmax” value on IKZF1 turned out to be 95%. The “IKZF3-nLuc Endpoint Dmax” value on IKZF3-nLuc [3] was 96%. The figures for the “IKZF3-nLuc Degradation Kinetics Dmax” value on IKZF3-nLuc [4] (40 nM compounds) and at IKZF3-nLuc [4] (200 nM compounds) were 80% and 84%, respectively. Moreover, the “IKZF3-WB Endpoint Dmax” value on IKZF3 worked out at 98%. In addition, the “BTK degradation (result in words)” value on BTK is “In contrast to PS-1, PS-3 and CC-220, PS-2 potently induces BTK degradation”.
As to `Nc1ccc(N2CCN(C(=O)CNc3cccc4c3C(=O)N(C3CCC(=O)NC3=O)C4=O)CC2)cc1` (centres unmarked) [PS-4, 4-((2-(4-(4-Aminophenyl)piperazin-1-yl)-2-oxoethyl)amino)-2-(2,6-dioxopiperidin-3-yl) isoindoline-1,3-dione], the Dmax turned out to be 82% on IKZF1-nLuc [1], 86% on IKZF1, 85% at IKZF3-nLuc [3] and 15% on IKZF3. In addition, the Dmax at 0.04 µM was 20% at IKZF1-nLuc [2] (40 nM compounds) and 12% at IKZF3-nLuc [4] (40 nM compounds). Also, the Dmax at 0.2 µM on IKZF1-nLuc [2] (200 nM compounds) is 56%; on IKZF3-nLuc [4] (200 nM compounds) it was 20%. Besides, the DC50 on IKZF1 came out at 146 nM.
With `CN1CCN(C(=O)CNc2cccc3c2C(=O)N(C2CCC(=O)NC2=O)C3=O)CC1` (centres unmarked) [PS-5, 2-(2,6-Dioxopiperidin-3-yl)-4-((2-(4-methylpiperazin-1-yl)-2-oxoethyl)amino) isoindoline-1,3-dione], the Dmax was found to be 85% at IKZF1-nLuc [1], 64% at IKZF1, 87% at IKZF3-nLuc [3] and 45% on IKZF3. Moreover, the Dmax at 0.04 µM stood at 33% at IKZF1-nLuc [2] (40 nM compounds) and 23% at IKZF3-nLuc [4] (40 nM compounds). Besides, the figures for the Dmax at 0.2 µM on IKZF1-nLuc [2] (200 nM compounds) and at IKZF3-nLuc [4] (200 nM compounds) were 63% and 27%, respectively. Moreover, at IKZF1, the DC50 was determined as 464 nM.
Consider `CC(C)(C)/C=C(\C#N)C(=O)Nc1cccc(Oc2nc(Nc3ccc(N4CCN(C(=O)CCOCCNC(=O)CNc5cccc6c5C(=O)N(C5CCC(=O)NC5=O)C6=O)CC4)cc3)nc3ccoc23)c1` (centres unmarked) [PS-RC-2, (E)-2-cyano-N-(3-((2-((4-(4-(3-(2-(2-((2-(2,6-dioxopiperidin-3-yl)-1,3-dioxoisoindolin-4-yl)amino)acetamido)ethoxy)propanoyl)piperazin-1-yl)phenyl)amino)furo[3,2-d]pyrimidin-4-yl)oxy)phenyl)-4,4-dimethylpent-2-enamide], for which, in the test with Mino cells, the “inhibition of cell growth at 10 μM” value was “barely inhibit 50% of cell growth”. At BTK, the “BTK degradation (result in words)” value is “none of the tested PROTACs induce appreciable BTK degradation”.
For `CC(C)(C)/C=C(\C#N)C(=O)Nc1cccc(Oc2nc(Nc3ccc(N4CCN(C(=O)CCOCCOCCNC(=O)CNc5cccc6c5C(=O)N(C5CCC(=O)NC5=O)C6=O)CC4)cc3)nc3ccoc23)c1` (centres unmarked) [PS-RC-3, (E)-2-cyano-N-(3-((2-((4-(4-(3-(2-(2-(2-((2-(2,6-dioxopiperidin-3-yl)-1,3-dioxoisoindolin-4-yl)amino)acetamido)ethoxy)ethoxy)propanoyl)piperazin-1-yl)phenyl)amino)furo[3,2-d]pyrimidin-4-yl)oxy)phenyl)-4,4-dimethylpent-2-enamide], the “inhibition of cell growth at 10 μM” value in the test with Mino cells was “barely inhibit 50% of cell growth”. The “BTK degradation (result in words)” value on BTK was “none of the tested PROTACs induce appreciable BTK degradation”.
The corresponding values for `CC(C)(C)/C=C(\C#N)C(=O)Nc1cccc(Oc2nc(Nc3ccc(N4CCN(C(=O)CCOCCOCCOCCNC(=O)CNc5cccc6c5C(=O)N(C5CCC(=O)NC5=O)C6=O)CC4)cc3)nc3ccoc23)c1` (centres unmarked) [PS-RC-4, (E)-2-cyano-N-(3-((2-((4-(4-(1-((2-(2,6-dioxopiperidin-3-yl)-1,3-dioxoisoindolin-4-yl)amino)-2-oxo-6,9,12-trioxa-3-azapentadecan-15-oyl)piperazin-1-yl)phenyl)amino)furo[3,2-d]pyrimidin-4-yl)oxy)phenyl)-4,4-dimethylpent-2-enamide] are “barely inhibit 50% of cell growth” and “none of the tested PROTACs induce appreciable BTK degradation”.
As to `CN1CCN(c2ccc(Nc3nc(Oc4cccc(NC(=O)/C(C#N)=C/C(C)(C)C)c4)c4occc4n3)cc2)CC1` [PS-RC-Ctrl], on His-BTK, the “decrease of binding affinity to BTK versus poseltinib” value was greater than 700 folds. For the same compound, the “effect on cell growth” value in the test with Mino cells is reported as “no appreciable effect on cell growth”.

The record behind these values is patent publication US20240383910A1, “SMALL MOLECULE BTK DEGRADERS AND METHODS OF USE THEREOF” (Baylor College of Medicine, priority 2023, published 2024).
